# Experimental data: patent US8952024B2, “Herbicidal pyrimidone derivatives” (E I du Pont de Nemours and Company, priority 2009, dated 2015)
# How the values were obtained:
# Assay in all cases: Test B pre-/postemergence plant response
# Format in all cases: in vivo
# [1] = system: ragweed (common ragweed, Ambrosia elatior); conditions: for Ragweed plant response rating (0 to 100 scale): 62 g ai/ha, 0 is no effect, 13 to 15 days
# How it was run: (§1)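 Pre-em in loam/sand; post-em at 1–4 leaf (2–18 cm) in peat mix. Solvent + surfactant formulation. Greenhouse 13–15 d; visual % control vs untreated, 0–100.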
# soybean (Glycine max) = conditions: for Soybean plant response rating (0 to 100 scale): 62 g ai/ha, 0 is no effect, 13 to 15 days
# How it was run: as §1
# [2] = system: velvetleaf (Abutilon theophrasti); conditions: for Velvetleaf plant response rating (0 to 100 scale): 62 g ai/ha, 0 is no effect, 13 to 15 days
# How it was run: as §1
# [3] = system: lambsquarters (Chenopodium album); conditions: for Lambsquarters plant response rating (0 to 100 scale): 62 g ai/ha, 0 is no effect, 13 to 15 days
# How it was run: as §1
# [4] = system: Italian ryegrass (Lolium multiflorum); conditions: for Ryegrass, Italian plant response rating (0 to 100 scale): 62 g ai/ha, 0 is no effect, 13 to 15 days
# How it was run: as §1
# [5] = system: bermudagrass (Cynodon dactylon); conditions: for Bermudagrass plant response rating (0 to 100 scale): 62 g ai/ha, 0 is no effect, 13 to 15 days
# How it was run: as §1
# kochia (Kochia scoparia) = conditions: for Kochia plant response rating (0 to 100 scale): 62 g ai/ha, 0 is no effect, 13 to 15 days
# How it was run: as §1
# [6] = system: blackgrass (Alopecurus myosuroides); conditions: for Blackgrass plant response rating (0 to 100 scale): 62 g ai/ha, 0 is no effect, 13 to 15 days
# How it was run: as §1
# wild oat (Avena fatua) = conditions: for Oat, Wild plant response rating (0 to 100 scale): 62 g ai/ha, 0 is no effect, 13 to 15 days
# How it was run: as §1
# [7] = system: large crabgrass (Digitaria sanguinalis); conditions: for Crabgrass, Large plant response rating (0 to 100 scale): 62 g ai/ha, 0 is no effect, 13 to 15 days
# How it was run: as §1
# [8] = system: pigweed (Amaranthus retroflexus); conditions: for Pigweed plant response rating (0 to 100 scale): 62 g ai/ha, 0 is no effect, 13 to 15 days
# How it was run: as §1
# [9] = system: cocklebur (Xanthium strumarium); conditions: for Cocklebur plant response rating (0 to 100 scale): 62 g ai/ha, 0 is no effect, 13 to 15 days
# How it was run: as §1
# corn (Zea mays) = conditions: for Corn plant response rating (0 to 100 scale): 62 g ai/ha, 0 is no effect, 13 to 15 days
# How it was run: as §1
# [10] = system: downy bromegrass (Bromus tectorum); conditions: for Bromegrass, Downy plant response rating (0 to 100 scale): 62 g ai/ha, 0 is no effect, 13 to 15 days
# How it was run: as §1
# [11] = system: Surinam grass (Brachiaria decumbens); conditions: for Surinam Grass plant response rating (0 to 100 scale): 62 g ai/ha, 0 is no effect, 13 to 15 days
# How it was run: as §1
# [12] = system: green foxtail (Setaria viridis); conditions: for Foxtail, Green plant response rating (0 to 100 scale): 62 g ai/ha, 0 is no effect, 13 to 15 days
# How it was run: as §1
# [13] = system: yellow nutsedge (Cyperus esculentus); conditions: for Nutsedge, Yellow plant response rating (0 to 100 scale): 62 g ai/ha, 0 is no effect, 13 to 15 days
# How it was run: as §1
# [14] = 31 g ai/ha, postemergence, scale 0 to 100, 0 is no effect, 100 is complete control
# [15] = postemergence, 100 is complete control
# [16] = Postemergence, 250 g ai/ha, scale 0 to 100 (0 no effect, 100 complete control)
# [17] = Postemergence, 125 g ai/ha, visual rating after 13 to 15 days, scale 0 (no effect) to 100 (complete control)
smiles,measurement,setting,value
CCCCCCn1c(-c2ccccc2)ncc(C(=O)C2=C(O)CCCC2=O)c1=O [Compound 94],"Plant response rating, Ragweed",[1]; [14],40
same,Ragweed plant response rating (0 to 100 scale),[1]; [15],45
same,"Plant response rating, Ragweed",[1]; [16],80
same,"Plant response rating, Soybean",soybean (Glycine max); [14],65
same,Soybean plant response rating (0 to 100 scale),soybean (Glycine max); [15],80
same,"Plant response rating, Soybean",soybean (Glycine max); [16],95
same,Velvetleaf plant response rating (0 to 100 scale),[2]; [15],70
same,"Plant response rating, Velvetleaf",[2]; [16],80
same,"Plant response rating, Lambsquarters",[3]; [14],80
same,Lambsquarters plant response rating (0 to 100 scale),[3]; [15],95
same,"Plant response rating, Lambsquarters",[3]; [16],100
same,"Plant response rating, Ryegrass, Italian",[4]; [14],0
same,"Ryegrass, Italian plant response rating (0 to 100 scale)",[4]; [15],0
same,"Plant response rating, Ryegrass, Italian",[4]; [16],10
same,"Plant response rating, Bermudagrass",[5]; [14],80
same,Bermudagrass plant response rating (0 to 100 scale),[5]; [15],80
same,"Plant response rating, Bermudagrass",[5]; [17],98
same,"Plant response rating, Bermudagrass",[5]; [16],98
same,Kochia plant response rating (0 to 100 scale),kochia (Kochia scoparia); [15],55
same,"Plant response rating, Kochia",kochia (Kochia scoparia); [16],90
same,"Plant response rating, Blackgrass",[6]; [14],5
same,Blackgrass plant response rating (0 to 100 scale),[6]; [15],10
same,"Plant response rating, Blackgrass",[6]; [17],10
same,"Plant response rating, Blackgrass",[6]; [16],20
same,"Plant response rating, Oat, Wild",wild oat (Avena fatua); [14],0
same,"Oat, Wild plant response rating (0 to 100 scale)",wild oat (Avena fatua); [15],5
same,"Plant response rating, Oat, Wild",wild oat (Avena fatua); [16],30
same,"Plant response rating, Crabgrass, Large",[7]; [14],70
same,"Crabgrass, Large plant response rating (0 to 100 scale)",[7]; [15],75
same,"Plant response rating, Crabgrass, Large",[7]; [17],90
same,"Plant response rating, Crabgrass, Large",[7]; [16],90
same,"Plant response rating, Pigweed",[8]; [14],100
same,Pigweed plant response rating (0 to 100 scale),[8]; [15],100
same,"Plant response rating, Pigweed",[8]; [16],100
same,"Plant response rating, Cocklebur",[9]; [14],45
same,Cocklebur plant response rating (0 to 100 scale),[9]; [15],45
same,"Plant response rating, Cocklebur",[9]; [17],60
same,"Plant response rating, Cocklebur",[9]; [16],90
same,"Plant response rating, Corn",corn (Zea mays); [14],0
same,Corn plant response rating (0 to 100 scale),corn (Zea mays); [15],55
same,"Plant response rating, Corn",corn (Zea mays); [17],70
same,"Plant response rating, Corn",corn (Zea mays); [16],80
same,"Plant response rating, Bromegrass, Downy",[10]; [14],0
same,"Bromegrass, Downy plant response rating (0 to 100 scale)",[10]; [15],0
same,"Plant response rating, Bromegrass, Downy",[10]; [17],0
same,"Plant response rating, Bromegrass, Downy",[10]; [16],0
same,Surinam Grass plant response rating (0 to 100 scale),[11]; [15],60
same,"Plant response rating, Surinam Grass",[11]; [16],80
same,"Plant response rating, Foxtail, Green",[12]; [14],10
same,"Foxtail, Green plant response rating (0 to 100 scale)",[12]; [15],60
same,"Plant response rating, Foxtail, Green",[12]; [16],80
same,"Plant response rating, Nutsedge, Yellow",[13]; [14],20
same,"Nutsedge, Yellow plant response rating (0 to 100 scale)",[13]; [15],20
same,"Plant response rating, Nutsedge, Yellow",[13]; [16],65
CCOCCn1c(-c2ccccc2)ncc(C(=O)C2=C(O)CCCC2=O)c1=O [Compound 96],"Plant response rating, Ragweed",[1]; [14],80
same,Ragweed plant response rating (0 to 100 scale),[1]; [15],80
same,"Plant response rating, Ragweed",[1]; [16],95
same,"Plant response rating, Soybean",soybean (Glycine max); [14],65
same,Soybean plant response rating (0 to 100 scale),soybean (Glycine max); [15],75
same,"Plant response rating, Soybean",soybean (Glycine max); [16],98
same,"Plant response rating, Velvetleaf",[2]; [14],95
same,Velvetleaf plant response rating (0 to 100 scale),[2]; [15],98
same,"Plant response rating, Velvetleaf",[2]; [16],100
same,"Plant response rating, Lambsquarters",[3]; [14],90
same,Lambsquarters plant response rating (0 to 100 scale),[3]; [15],98
same,"Plant response rating, Lambsquarters",[3]; [16],100
same,"Plant response rating, Ryegrass, Italian",[4]; [14],0
same,"Ryegrass, Italian plant response rating (0 to 100 scale)",[4]; [15],5
same,"Plant response rating, Ryegrass, Italian",[4]; [16],10
same,"Plant response rating, Bermudagrass",[5]; [14],80
same,Bermudagrass plant response rating (0 to 100 scale),[5]; [15],95
same,"Plant response rating, Bermudagrass",[5]; [17],95
same,"Plant response rating, Bermudagrass",[5]; [16],98
same,"Plant response rating, Kochia",kochia (Kochia scoparia); [14],65
same,Kochia plant response rating (0 to 100 scale),kochia (Kochia scoparia); [15],85
same,"Plant response rating, Kochia",kochia (Kochia scoparia); [16],100
same,"Plant response rating, Blackgrass",[6]; [14],5
same,Blackgrass plant response rating (0 to 100 scale),[6]; [15],20
same,"Plant response rating, Blackgrass",[6]; [17],30
same,"Plant response rating, Blackgrass",[6]; [16],40
same,"Plant response rating, Oat, Wild",wild oat (Avena fatua); [14],0
same,"Oat, Wild plant response rating (0 to 100 scale)",wild oat (Avena fatua); [15],5
same,"Plant response rating, Oat, Wild",wild oat (Avena fatua); [16],30
same,"Plant response rating, Crabgrass, Large",[7]; [14],75
same,"Crabgrass, Large plant response rating (0 to 100 scale)",[7]; [15],80
same,"Plant response rating, Crabgrass, Large",[7]; [17],85
same,"Plant response rating, Crabgrass, Large",[7]; [16],90
same,"Plant response rating, Pigweed",[8]; [14],90
same,Pigweed plant response rating (0 to 100 scale),[8]; [15],95
same,"Plant response rating, Pigweed",[8]; [16],100
same,"Plant response rating, Cocklebur",[9]; [14],75
same,Cocklebur plant response rating (0 to 100 scale),[9]; [15],95
same,"Plant response rating, Cocklebur",[9]; [17],98
same,"Plant response rating, Cocklebur",[9]; [16],100
same,"Plant response rating, Corn",corn (Zea mays); [14],45
same,Corn plant response rating (0 to 100 scale),corn (Zea mays); [15],60
same,"Plant response rating, Corn",corn (Zea mays); [17],65
same,"Plant response rating, Corn",corn (Zea mays); [16],80
same,"Plant response rating, Bromegrass, Downy",[10]; [14],0
same,"Bromegrass, Downy plant response rating (0 to 100 scale)",[10]; [15],0
same,"Plant response rating, Bromegrass, Downy",[10]; [17],5
same,"Plant response rating, Bromegrass, Downy",[10]; [16],10
same,"Plant response rating, Surinam Grass",[11]; [14],75
same,Surinam Grass plant response rating (0 to 100 scale),[11]; [15],75
same,"Plant response rating, Surinam Grass",[11]; [16],85
same,"Plant response rating, Foxtail, Green",[12]; [14],50
same,"Foxtail, Green plant response rating (0 to 100 scale)",[12]; [15],65
same,"Plant response rating, Foxtail, Green",[12]; [16],85
same,"Plant response rating, Nutsedge, Yellow",[13]; [14],70
same,"Nutsedge, Yellow plant response rating (0 to 100 scale)",[13]; [15],70
same,"Plant response rating, Nutsedge, Yellow",[13]; [16],85
